This note sets out measurements from PubChem BioAssay AID220 (DTP/NCI, 2004).

“And” between values parts separate entries of the source, which are not always exact repeats. Identical values can stand only once. Inconclusive results are not listed.

For this experiment, the system named is CD8F1 mice, subcutaneous mammary adenocarcinoma, T/C%. As to the kind of experiment: NCI In Vivo Anticancer Drug Screen. Data for tumor model Mammary Adenocarcinoma CD8F1 (subcutaneous) in CD8F1. Particulars: higher = larger tumour. In outline: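 Transplantable tumors were established in mice, animals were dosed with compound or vehicle, and survival or tumor size was then measured in both groups. The treated result was divided by the control result.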

Setting [1] is: endpoint: median tumor weight (est.), dose: 25.0 mg/kg/injection, schedule: Q07DX005 (ip), vehicle: suspension in saline.
Where [2] appears, read: endpoint: median tumor weight (est.), dose: 50.0 mg/kg/injection, schedule: Q07DX005 (ip), vehicle: suspension in saline.
Setting [3] is: endpoint: median tumor weight change, dose: 125.0 mg/kg/injection, schedule: Q01DX001 (ip), vehicle: suspension in saline.
Where [4] appears, read: endpoint: median tumor weight (est.), dose: 25.0 mg/kg/injection, schedule: Q07DX005 (ip), vehicle: Klucel (hydroxypropylcellulose) (HPC).
The mark [5] stands for this setting: endpoint: median tumor weight (est.), dose: 50.0 mg/kg/injection, schedule: Q07DX005 (ip), vehicle: Klucel (hydroxypropylcellulose) (HPC).
Setting [6] is: endpoint: median tumor weight change, dose: 62.5 mg/kg/injection, schedule: Q01DX001 (ip), vehicle: Klucel (hydroxypropylcellulose) (HPC).
Where [7] appears, read: endpoint: median tumor weight change, dose: 125.0 mg/kg/injection, schedule: Q01DX001 (ip), vehicle: saline.

`COC1C(OC(=O)/C=C/C=C/C=C/C=C/C(=O)O)CCC2(CO2)C1C1(C)OC1CC=C(C)C` (centres undefined): the T/C reads like this: under setting [1], 102 % of control; under setting [2], 106 % of control; (endpoint: median tumor weight (est.), dose: 100.0 mg/kg/injection, schedule: Q07DX005 (ip), vehicle: suspension in saline) 91 % of control; (endpoint: median tumor weight (est.), dose: 200.0 mg/kg/injection, schedule: Q07DX005 (ip), vehicle: suspension in saline) 94 % of control; under setting [3], 85 % of control; (endpoint: median tumor weight change, dose: 250.0 mg/kg/injection, schedule: Q01DX001 (ip), vehicle: suspension in saline) 56 % of control. Under “endpoint: median tumor weight change, dose: 500.0 mg/kg/injection, schedule: Q01DX001 (ip), vehicle: suspension in saline”, the T/C was 58 % of control.

Consider `CN(Cc1cnc2nc(N)nc(N)c2n1)c1c(Cl)cc(C(=O)NC(CCC(=O)O)C(=O)O)cc1Cl` (centres undefined), for which the T/C under setting [4] was 72 % of control and 82 % of control; the T/C under setting [5] is 53 % of control and 65 % of control.

Take `CC1C=NNC1=O` (centres undefined): the T/C reads like this: under setting [4], 20 % of control; under setting [5], 187 % of control; (endpoint: median tumor weight (est.), dose: 100.0 mg/kg/injection, schedule: Q07DX005 (ip), vehicle: Klucel (hydroxypropylcellulose) (HPC)) 234 % of control; (endpoint: median tumor weight (est.), dose: 200.0 mg/kg/injection, schedule: Q07DX005 (ip), vehicle: Klucel (hydroxypropylcellulose) (HPC)) 182 % of control; (endpoint: median tumor weight (est.), dose: 400.0 mg/kg/injection, schedule: Q07DX005 (ip), vehicle: Klucel (hydroxypropylcellulose) (HPC)) 23 % of control.

With `COc1cc2cc(c1Cl)N(C)C(=O)CC(OC(=O)C(C)C)C1(C)OC1C(C)C1CC(O)(NC(=O)O1)C(OC)/C=C/C=C(C)C2` (centres undefined), the T/C is 79 % of control (endpoint: median tumor weight (est.), dose: 9.3 micrograms/kg/injection, schedule: Q07DX005 (ip), vehicle: saline + alcohol); 103 % of control (endpoint: median tumor weight (est.), dose: 18.7 micrograms/kg/injection, schedule: Q07DX005 (ip), vehicle: saline + alcohol); 89 % of control (endpoint: median tumor weight (est.), dose: 75.0 micrograms/kg/injection, schedule: Q07DX005 (ip), vehicle: saline + alcohol); 45 % of control (endpoint: median tumor weight (est.), dose: 150.0 micrograms/kg/injection, schedule: Q07DX005 (ip), vehicle: saline + alcohol).

Take `Nc1ncnc2c1nnn2C1OC(CO)C(O)C1O` (centres undefined): the T/C under setting [6] is 111 % of control; the T/C (endpoint: median tumor weight change, dose: 250.0 mg/kg/injection, schedule: Q01DX001 (ip), vehicle: Klucel (hydroxypropylcellulose) (HPC)) is 39 % of control and 40 % of control.

Regarding `[CH3][Sn]([CH3])([Cl])[S]CCN`, for the setting “endpoint: median tumor weight change, dose: 12.5 mg/kg/injection, schedule: Q01DX001 (ip), vehicle: saline”, the T/C was 108 % of control.

On to `CN=S(=O)(OCCCCCOS(=O)(=NC)c1ccccc1)c1ccccc1` (centres undefined), for which the T/C by setting is: (endpoint: median tumor weight change, dose: 62.0 mg/kg/injection, schedule: Q01DX001 (ip), vehicle: saline with Tween-80) 121 % of control; (endpoint: median tumor weight change, dose: 62.5 mg/kg/injection, schedule: Q01DX001 (ip), vehicle: saline with Tween-80) 59 % of control; (endpoint: median tumor weight change, dose: 250.0 mg/kg/injection, schedule: Q01DX001 (ip), vehicle: saline with Tween-80) 63 % of control and 83 % of control; (endpoint: median tumor weight change, dose: 500.0 mg/kg/injection, schedule: Q01DX001 (ip), vehicle: saline with Tween-80) 20 % of control.

Consider `CC12CCC3C(CCC4CC(OC(=O)Cc5ccc(N(CCCl)CCCl)cc5)CCC43C)C1CCC(=O)N2` (centres undefined), for which the T/C is 63 % of control (endpoint: median tumor weight (est.), dose: 0.75 mg/kg/injection, schedule: Q07DX005 (ip), vehicle: saline with Tween-80); 109 % of control (endpoint: median tumor weight (est.), dose: 1.5 mg/kg/injection, schedule: Q07DX005 (ip), vehicle: saline with Tween-80); 91 % of control (endpoint: median tumor weight (est.), dose: 3.0 mg/kg/injection, schedule: Q07DX005 (ip), vehicle: Klucel (hydroxypropylcellulose) (HPC)); 99 % of control (endpoint: median tumor weight (est.), dose: 3.0 mg/kg/injection, schedule: Q07DX005 (ip), vehicle: saline with Tween-80); 41 % of control (endpoint: median tumor weight (est.), dose: 6.0 mg/kg/injection, schedule: Q07DX005 (ip), vehicle: Klucel (hydroxypropylcellulose) (HPC)); 55 % of control (endpoint: median tumor weight (est.), dose: 6.0 mg/kg/injection, schedule: Q07DX005 (ip), vehicle: saline with Tween-80). Moreover, the T/C is, setting by setting: (endpoint: median tumor weight (est.), dose: 12.0 mg/kg/injection, schedule: Q07DX005 (ip), vehicle: Klucel (hydroxypropylcellulose) (HPC)) 30 % of control; (endpoint: median tumor weight (est.), dose: 12.0 mg/kg/injection, schedule: Q07DX005 (ip), vehicle: saline with Tween-80) 12 % of control; (endpoint: median tumor weight (est.), dose: 24.0 mg/kg/injection, schedule: Q07DX005 (ip), vehicle: Klucel (hydroxypropylcellulose) (HPC)) 8 % of control; (endpoint: median tumor weight (est.), dose: 24.0 mg/kg/injection, schedule: Q07DX005 (ip), vehicle: saline with Tween-80) 1 % of control.

As for `CC(C)NCC(O)COc1ccc(O)c(O)c1` (centres undefined), the T/C by setting is: (endpoint: median tumor weight change, dose: 1.5 mg/kg/injection, schedule: Q01DX001 (ip), vehicle: saline) 84 % of control; (endpoint: median tumor weight change, dose: 6.0 mg/kg/injection, schedule: Q01DX001 (ip), vehicle: saline) 89 % of control and 105 % of control; (endpoint: median tumor weight change, dose: 12.0 mg/kg/injection, schedule: Q01DX001 (ip), vehicle: saline) 72 % of control and 97 % of control; (endpoint: median tumor weight change, dose: 24.0 mg/kg/injection, schedule: Q01DX001 (ip), vehicle: saline) 102 % of control; under setting [7], 77 % of control and 96 % of control.

Consider `CCCCC1CCCCCCc2[nH]c(/C=C3\N=C(c4ccc[nH]4)C=C3OC)cc21` (centres undefined), for which the T/C is 92 % of control (endpoint: median tumor weight change, dose: 0.38 mg/kg/injection, schedule: Q01DX001 (ip), vehicle: saline with Tween-80); 78 % of control (endpoint: median tumor weight change, dose: 0.75 mg/kg/injection, schedule: Q01DX001 (ip), vehicle: saline with Tween-80); 104 % of control (endpoint: median tumor weight change, dose: 1.5 mg/kg/injection, schedule: Q01DX001 (ip), vehicle: saline with Tween-80); 102 % of control (endpoint: median tumor weight change, dose: 3.0 mg/kg/injection, schedule: Q01DX001 (ip), vehicle: saline with Tween-80).

Take `Cc1cc(N(CC(C)Br)CC(C)Br)ccc1N=Nc1ccccc1C(=O)O` (centres undefined): the T/C by setting is: (endpoint: median tumor weight (est.), dose: 1.56 mg/kg/injection, schedule: Q07DX005 (ip), vehicle: saline with Tween-80) 79 % of control; (endpoint: median tumor weight (est.), dose: 3.12 mg/kg/injection, schedule: Q07DX005 (ip), vehicle: saline with Tween-80) 94 % of control; (endpoint: median tumor weight (est.), dose: 6.25 mg/kg/injection, schedule: Q07DX005 (ip), vehicle: saline with Tween-80) 68 % of control; (endpoint: median tumor weight (est.), dose: 12.5 mg/kg/injection, schedule: Q07DX005 (ip), vehicle: saline with Tween-80) 47 % of control; (endpoint: median tumor weight (est.), dose: 25.0 mg/kg/injection, schedule: Q07DX005 (ip), vehicle: saline with Tween-80) 23 % of control.

On to `CC(=O)OC1C(O)C(C)OC(OC2C(OC(=O)C3CCC4C(C3)OC3(CC(OC(=O)/C=C/c5ccccc5)C(C)CO3)C43CO3)OC(C)C(O)C2OC(C)=O)C1O` (centres undefined), for which the T/C by setting is: (endpoint: median tumor weight change, dose: 10.0 mg/kg/injection, schedule: Q01DX001 (ip), vehicle: distilled water + Tween-80) 107 % of control; (endpoint: median tumor weight change, dose: 40.0 mg/kg/injection, schedule: Q01DX001 (ip), vehicle: distilled water + Tween-80) 100 % of control; (endpoint: median tumor weight change, dose: 80.0 mg/kg/injection, schedule: Q01DX001 (ip), vehicle: distilled water + Tween-80) 110 % of control.

Consider `CN(N=O)C(N)=O`, for which the T/C was 156 % of control (endpoint: median tumor weight (est.), dose: 3.12 mg/kg/injection, schedule: Q07DX005 (ip), vehicle: suspension in saline); 103 % of control (endpoint: median tumor weight (est.), dose: 12.5 mg/kg/injection, schedule: Q07DX005 (ip), vehicle: saline); 104 % of control (endpoint: median tumor weight (est.), dose: 12.5 mg/kg/injection, schedule: Q07DX005 (ip), vehicle: suspension in saline); 81 % of control (endpoint: median tumor weight (est.), dose: 25.0 mg/kg/injection, schedule: Q07DX005 (ip), vehicle: saline); 100 % of control under setting [1]; 39 % of control (endpoint: median tumor weight (est.), dose: 50.0 mg/kg/injection, schedule: Q07DX005 (ip), vehicle: saline). The T/C by setting is: under setting [2], 31 % of control; (endpoint: median tumor weight change, dose: 15.62 mg/kg/injection, schedule: Q01DX001 (ip), vehicle: Klucel (hydroxypropylcellulose) (HPC)) 66 % of control; (endpoint: median tumor weight change, dose: 16.0 mg/kg/injection, schedule: Q01DX001 (ip), vehicle: saline) 54 % of control; (endpoint: median tumor weight change, dose: 31.0 mg/kg/injection, schedule: Q01DX001 (ip), vehicle: saline) 29 % of control; (endpoint: median tumor weight change, dose: 31.25 mg/kg/injection, schedule: Q01DX001 (ip), vehicle: Klucel (hydroxypropylcellulose) (HPC)) 67 % of control; (endpoint: median tumor weight change, dose: 31.25 mg/kg/injection, schedule: Q01DX001 (ip), vehicle: suspension in saline) 72 % of control. Besides, the T/C reads like this: (endpoint: median tumor weight change, dose: 62.0 mg/kg/injection, schedule: Q01DX001 (ip), vehicle: saline) 38 % of control; under setting [6], 14 % of control; (endpoint: median tumor weight change, dose: 62.5 mg/kg/injection, schedule: Q01DX001 (ip), vehicle: suspension in saline) 57 % of control; under setting [7], -59 % of control; under setting [3], -2 % of control.
